Tests used:
[1] = target: alpha-L-fucosidase (Bos taurus); assay: Compound was tested for inhibitory activity (competitive) against alpha-L-fucosidase from bovine kidney
[2] = target: alpha-L-fucosidase (Bos taurus); assay: Compound was tested for inhibitory activity against alpha-L-fucosidase from bovine epididymis
[3] = target: alpha-L-fucosidase (Bos taurus); assay: Compound was tested for inhibitory activity (mixed) against alpha-L-fucosidase from bovine kidney

Ki [1] | Ki [2] | Ki [3] | Structure (SMILES)
7 µM | 11 µM | – | NCC(O)C(=O)C(=O)C(N)CO (stereo unspecified) [2,6-Diimino-hexane-1,3,4,5-tetraol]
– | – | 4000 µM | CC1OC(SC2CC(O)C(O)OC2CO)C(O)C(O)C1O [(2S,4S,5S)-2-((3S,5S)-5,6-Dihydroxy-2-hydroxymethyl-tetrahydro-pyran-3-ylsulfanyl)-6-methyl-tetrahydro-pyran-3,4,5-triol]
– | – | 2400 µM | CC(=O)NC1CC(SC2OC(C)C(O)C(O)C2O)C(CO)OC1O [N-[(3S,5S)-2-Hydroxy-6-hydroxymethyl-5-((2S,4S,5S)-3,4,5-trihydroxy-6-methyl-tetrahydro-pyran-2-ylsulfanyl)-tetrahydro-pyran-3-yl]-acetamide]
42 µM | 84 µM | – | C[C@@H]1O[C@@H](O)[C@@H](O)[C@H](O)[C@@H]1S [(2R,3S,4S,5S,6S)-5-Mercapto-6-methyl-tetrahydro-pyran-2,3,4-triol]

— BindingDB's records for doi:10.1016/0960-894X(95)00377-6 (1995)
